Results taken from patent publication US10087178B2, “Substituted spiropyrido[1,2-a]pyrazine derivative and medicinal use thereof as HIV integrase inhibitor” (priority 2012, dated 2018).
Where a name gives a salt, the structure may show the parent alone. Read-outs that look alike come from different tables or passages of the source.

Tested on: HIV-1 NL4-3 strain
Test: Evaluation of antiviral activity: acute infection system of MT-4 cell with HIV-1 NL4-3 strain
Type: cell-based
[1] = Human immunodeficiency virus 1, NL43, MT4, 120 h, read-out: antiviral activity (EC50), MT-4 cells infected with HIV-1 NL4-3 strain (MOI 0.05), cultured 5 days, Cell Titer-Glo
[2] = Human immunodeficiency virus 1, NL43, MT4, 120 h, MT-4 cells infected with HIV-1 NL4-3 strain (MOI 0.05), cultured 5 days, Cell Titer-Glo, read-out: antiviral activity (EC50)
[3] = Human immunodeficiency virus 1, NL43, MT4, 120 h, antiviral activity, MT-4 cells infected with HIV-1 NL4-3 (MOI 0.05), 5 days culture, Cell Titer-Glo luminescence, read-out: EC50

Compound: COC[C@@H]1C[C@]12CN(C)C(=O)c1c(O)c(=O)c(C(=O)NCc3cccc(Cl)c3F)cn12 [Example T24, (1R,2R)-N-(3-chloro-2-fluorobenzyl)-9′-hydroxy-2-(methoxymethyl)-2′-methyl-1′,8′-dioxo-1′,2′,3′,8′-tetrahydrospiro[cyclopropane-1,4-pyrido[1,2-a]pyrazine]-7′-carboxamide hydrochloride]
- EC50 [1]: 3.2 nM

Compound: CC(C)N1C(=O)c2c(O)c(=O)c(C(=O)NCc3ccc(F)cc3F)cn2C[C@]12C[C@@H](O)C2 [Example S54, N-(2,4-difluorobenzyl)- trans-3,9′-dihydroxy-2′-isopropyl-1′,8′-dioxo-1′,2′,4′,8′-tetrahydrospiro[cyclobutane-1,3′-pyrido[1,2-a]pyrazine]-7′-carboxamide hydrochloride]
- EC50 [2]: 27 nM

Compound: CO[C@H]1C[C@@]2(Cn3cc(C(=O)NCc4ccc(F)cc4F)c(=O)c(O)c3C(=O)N2C(C)C)C1 [Example S52, N-(2,4-difluorobenzyl)-9′-hydroxy-2′-isopropyl-trans-3-methoxy-1′,8′-dioxo-1′,2′,4′,8′-tetrahydrospiro[cyclobutane-1,3′-pyrido[1,2-a]pyrazine]-7′-carboxamide hydrochloride]
- EC50 [2]: 3.5 nM

Compound: CCN1C(=O)c2c(O)c(=O)c(C(=O)NCc3ccc(OC)c(Cl)c3F)cn2C[C@@]12C[C@@H]2CO [Example T48, (1S,2S)-N-(3-chloro-2-fluoro-4-methoxybenzyl)-2′-ethyl-9′-hydroxy-2-(hydroxymethyl)-1′,8′-dioxo-1′,2′,4′,8′-tetrahydrospiro[cyclopropane-1,3′-pyrido[1,2-a]pyrazine]-7′-carboxamide hydrochloride]
- EC50 [1]: 18 nM

Compound: COC[C@H]1C[C@]12CN(C(C)C)C(=O)c1c(O)c(=O)c(C(=O)NCc3ccc(F)cc3F)cn12 [Example 14, (1R,2S)—N-(2,4-difluorobenzyl)-9′-hydroxy-2′-isopropyl-2-(methoxymethyl)-1′,8′-dioxo-1′,2′,3′,8′-tetrahydrospiro[cyclopropane-1,4′-pyrido[1,2-a]pyrazine]-7′-carboxamide]
- EC50 [3]: 9.1 nM

Compound: CC(C)N1C[C@]2(C[C@H](OCc3ccccc3)C2)n2cc(C(=O)NCc3ccc(F)cc3F)c(=O)c(O)c2C1=O [Example S2, cis-3-(benzyloxy)-N-(2,4-difluorobenzyl)-9′-hydroxy-2′-isopropyl-1′,8′-dioxo-1′,2′,3′,8′-tetrahydrospiro[cyclobutane-1,4′-pyrido[1,2-a]pyrazine]-7′-carboxamide hydrochloride]
- EC50 [3]: 10 nM

Compound: COC[C@H]1C[C@@]12CN(C)C(=O)c1c(O)c(=O)c(C(=O)NCc3cc(OC(C)C)cc(Cl)c3F)cn12 [Example T26, (1S,2S)-N-(3-chloro-2-fluoro-5-isopropoxybenzyl)-9′-hydroxy-2-(methoxymethyl)-2′-methyl-1′,8′-dioxo-1′,2′,3′,8′-tetrahydrospiro[cyclopropane-1,4′-pyrido[1,2-a]pyrazine]-7′-carboxamide hydrochloride]
- EC50 [1]: 15 nM

Compound: COC[C@H]1C[C@@]12CN(C)C(=O)c1c(O)c(=O)c(C(=O)NCc3ccc(F)cc3F)cn12 [Example T3, (1S,2S)-N-(2,4-difluorobenzyl)-9′-hydroxy-2-(methoxymethyl)-2′-methyl-1′,8′-dioxo-1′,2′,3′,8′-tetrahydrospiro[cyclopropane-1,4′-pyrido[1,2-a]pyrazine]-7′-carboxamide hydrochloride]
- EC50 [1]: 4.5 nM

Compound: CO[C@H]1C[C@]2(CN(C)C(=O)c3c(O)c(=O)c(C(=O)NCc4cccc(Cl)c4F)cn32)C1 [Example 1, N-(3-chloro-2-fluorobenzyl)-9′-hydroxy-cis-3-methoxy-2′-methyl-1′,8′-dioxo-1′,2′,3′,8′-tetrahydrospiro[cyclobutane-1,4′-pyrido[1,2-a]pyrazine]-7′-carboxamide hydrochloride]
- EC50 (read-out: EC50): 3.1 nM

Compound: CCN1C(=O)c2c(O)c(=O)c(C(=O)NCc3cccc(Cl)c3F)cn2C[C@]12C[C@H](COC)C2 [Example S61, N-(3-chloro-2-fluorobenzyl)-2′-ethyl-9′-hydroxy-cis-3-(methoxymethyl)-1′,8′-dioxo-1′,2′,4′,8′-tetrahydrospiro[cyclobutane-1,3′-pyrido[1,2-a]pyrazine]-7′-carboxamide hydrochloride]
- EC50 [2]: 5.1 nM

Compound: CO[C@H]1C[C@]2(CN(C)C(=O)c3c(OC(C)=O)c(=O)c(C(=O)NCc4cccc(Cl)c4F)cn32)C1 [Example S64, 7′-(3-chloro-2-fluorobenzylcarbamoyl)-cis-3-methoxy-2′-methyl-1′,8′-dioxo-1′,2′,3′,8′-tetrahydrospiro[cyclobutane-1,4′-pyrido[1,2-a]pyrazin]-9′-yl acetate]
- EC50 [2]: 2.8 nM

Compound: CNC(=O)[C@H]1C[C@]2(CN(C(C)C)C(=O)c3c(O)c(=O)c(C(=O)NCc4ccc(F)cc4F)cn32)C1 [Example S30, N^7′-(2,4-difluorobenzyl)-9′-hydroxy-2′-isopropyl-N^3-methyl-1′,8′-dioxo-1′,2′,3′,8′-tetrahydrospiro[cyclobutane-1,4′-pyrido[1,2-a]pyrazine]- cis-3,7′-dicarboxamide hydrochloride]
- EC50 [2]: 170 nM

Compound: COC[C@H]1C[C@@]12CN(C)C(=O)c1c(O)c(=O)c(C(=O)NCc3cccc(Cl)c3F)cn12 [Example T16, (1S.2S)-N-(3-chloro-2-fluorobenzyl)-9′-hydroxy-2-(methoxymethyl)-2′-methyl-1′,8′-dioxo-1′,2′,3′,8′-tetrahydrospiro[cyclopropane-1,4′-pyrido[1,2-a]pyrazine]-7′-carboxamide hydrochloride]
- EC50 [2]: 4.2 nM

Compound: COC[C@H]1C[C@]2(CN(C)C(=O)c3c(O)c(=O)c(C(=O)NCc4cccc(Cl)c4F)cn32)C1 [Example 28, Monosodium 7′-(3-chloro-2-fluorobenzylcarbamoyl)-cis-3-(methoxymethyl)-2′-methyl-1′,8′-dioxo-1′,2′,3′,8′-tetrahydrospiro[cyclobutane-1,4′-pyrido[1,2-a]pyrazin]-9′-olate]
- EC50 (MT-4 cells infected with HIV-1 NL4-3 strain (MOI 0.05), cultured 5 days, Cell Titer-Glo, read-out: antiviral activity (EC50)): 2.2 nM

Compound: COC[C@H]1C[C@]2(CN(C)C(=O)c3c(OC(=O)c4ccc(C)cc4)c(=O)c(C(=O)NCc4cccc(Cl)c4F)cn32)C1 [Example S72, 7′-(3-chloro-2-fluorobenzylcarbamoyl)-cis-3-(methoxymethyl)-2′-methyl-1′,8′-dioxo-1′,2′,3′,8′-tetrahydrospiro[cyclobutane-1,4′-pyrido[1,2-a]pyrazin]-9′-yl 4-methylbenzoate]
- EC50 [2]: 0.9 nM

Compound: CO[C@H]1C[C@]2(CN(C)C(=O)c3c(OC(=O)C(C)C)c(=O)c(C(=O)NCc4cccc(Cl)c4F)cn32)C1 [Example S66, 7′-(3-chloro-2-fluorobenzylcarbamoyl)-cis-3-methoxy-2′-methyl-1′,8′-dioxo-1′,2′,3′,8′-tetrahydrospiro[cyclobutane-1,4′-pyrido[1,2-a]pyrazin]-9′-yl isobutyrate]
- EC50 [2]: 0.9 nM

Compound: CO[C@H]1C[C@@]2(CN(C(C)C)C(=O)c3c(O)c(=O)c(C(=O)NCc4ccc(F)cc4F)cn32)C1 [Example S5, N-(2,4-difluorobenzyl)-9′-hydroxy-2′-isopropyl-trans-3-methoxy-1′,8′-dioxo-1′,2′,3′,8′-tetrahydrospiro[cyclobutane-1,4′-pyrido[1,2-a]pyrazine]-7′-carboxamide hydrochloride]
- EC50 [3]: 4.4 nM

Compound: CC(=O)N(C)C1CC2(C1)CN(C(C)C)C(=O)c1c(O)c(=O)c(C(=O)NCc3ccc(F)cc3F)cn12 (centres unmarked) [Example 20, N-(2,4-difluorobenzyl)-9′-hydroxy-2′-isopropyl-3-(N-methylacetamido)-1′,8′-dioxo-1′,2′,3′,8′-tetrahydrospiro[cyclobutane-1,4′-pyrido[1,2-a]pyrazine]-7′-carboxamide hydrochloride]
- EC50 (Human immunodeficiency virus 1, NL43, MT4, 120 h, antiviral activity, MT-4 cells infected with HIV-1 NL4-3 (MOI 0.05), 5 days culture, Cell Titer-Glo luminescence): 20 nM

Compound: COC[C@H]1C[C@]2(CN(C)C(=O)c3c(OC(=O)/C=C/C(=O)O)c(=O)c(C(=O)NCc4cccc(Cl)c4F)cn32)C1 [Example 39, (E)-4-[7′-(3-chloro-2-fluorobenzylcarbamoyl)-cis-3-(methoxymethyl)-2′-methyl-1′,8′-dioxo-1′,2′,3′,8′-tetrahydrospiro[cyclobutane-1,4′-pyrido[1,2-a]pyrazin]-9′-yloxy]-4-oxobut-2-enoic acid]
- EC50 (Human immunodeficiency virus 1, NL43, MT4, 120 h, read-out: antiviral activity (EC50)): 1.4 nM

Compound: CCO[C@H]1C[C@@]2(Cn3cc(C(=O)NCc4cccc(Cl)c4F)c(=O)c(O)c3C(=O)N2CC)C1 [Example S56, N-(3-chloro-2-fluorobenzyl)- trans-3-ethoxy-2′-ethyl-9′-hydroxy-1′,8′-dioxo-1′,2′,4′,8′-tetrahydrospiro[cyclobutane-1,3′-pyrido[1,2-a]pyrazine]-7′-carboxamide hydrochloride]
- EC50 [2]: 5.1 nM

Compound: CCO[C@H]1C[C@]2(CN(CC)C(=O)c3c(O)c(=O)c(C(=O)NCc4ccc(F)cc4F)cn32)C1 [Example S21, N-(2,4-difluorobenzyl)-cis-3-ethoxy-2′-ethyl-9′-hydroxy-1′,8′-dioxo-1′,2′,3′,8′-tetrahydrospiro[cyclobutane-1,4′-pyrido[1,2-a]pyrazine]-7′-carboxamide hydrochloride]
- EC50 [3]: 3.8 nM

Compound: CCN1C[C@@]2(C[C@@H]2C(=O)O)n2cc(C(=O)NCc3ccc(F)cc3F)c(=O)c(O)c2C1=O [Example T7, (1S,2S)-7′-(2,4-difluorobenzylcarbamoyl)-2′-ethyl-9′-hydroxy-1′,8′-dioxo-1′,2′,3′,8′-tetrahydrospiro[cyclopropane-1,4′-pyrido[1,2-a]pyrazine]-2-carboxylic acid hydrochloride]
- EC50 [2]: 15 nM

Compound: CC(C)O[C@H]1C[C@@]2(CN(C(C)C)C(=O)c3c(O)c(=O)c(C(=O)NCc4ccc(F)cc4F)cn32)C1 [Example S32, N-(2,4-difluorobenzyl)-9′-hydroxy-trans-3-isopropoxy-2′-isopropyl-1′,8′-dioxo-1′,2′,3′,8′-tetrahydrospiro[cyclobutane-1,4′-pyrido[1,2-a]pyrazine]-7′-carboxamide hydrochloride]
- EC50 [2]: 6.6 nM
